Entries after “also recorded” stand apart in the source; their conditions may differ.
Tests used:
[1] = system: p38 (alternative activation pathway); test: In vitro kinase assay: ATF2 phosphorylation by Zap70-activated p38; type: biochemical; conditions: (11R)-71-85 0.2-4.0 μg, (11R)-Ctrl 4.0 μg; 30 minutes at 30° C.; p38 activated with Zap70
Procedure: Purified p38 proteins were activated by incubating with active Zap70 in kinase buffer for 1 hour. (11R)-71-85 or (11R)-Ctrl was then added and incubated for 30 minutes at 30° C. One μg ATF2 and 10 μCi [^32P]ATP were then added and incubated for 45 minutes at 30° C. Phosphorylated products were resolved by SDS-PAGE, transferred to nitrocellulose membranes, and visualized by phosphorimager.
To test whether (11R)-71-85 can inhibit the alternative p38 activation pathway in vitro, an assay was performed to detect phosphorylation of activating transcription factor 2 (ATF2), a target of activated p38, in the presence and absence of (11R)-71-85. Purified p38 proteins were activated by incubation with active Zap70 in kinase buffer for 1 hour. (11R)-71-85 (0.2, 0.5, 1.0, 2.0 or 4.0 μg) or (11R)-Ctrl (4.0 μg) was then added and incubated for 30 minutes at 30° C. One μg ATF2 and 10 μCi [^32P]ATP were added and incubated for 45 minutes at 30° C. Phosphorylated products were resolved by SDS-PAGE, transferred to nitrocellulose membranes, and visualized by phosphorimager. […] In addition, the decrease in ATF2 phosphorylation was dependent on the dose of (11R)-71-85.

PANC02 tumors = test: PANC02 pancreatic tumor model, tumor growth after intra-tumor injection; type: in vivo, mice; conditions: relative to control animals
Procedure: FIGS. 9A-9C show injection of (11R)-71-85 stops the growth of established PANC02 tumors. WT C57BL/6 mice were injected with 7.5×10^5 PANC02 cells. After 16 days, mice received intra-tumor injections of (11R)-71-85 at the indicated amount or DMSO every other day. (FIG. 9A) Tumor volume from the start of injection (day 16) to day 42 in control mice and mice injected with 40 μg or 80 μg of (11R)-71-85. Sacrifice (sac.) of mice before day 42 is indicated. (FIG. 9B) weight and (FIG. 9C) appearance of the control (left) and treated (right) tumors on day 38.
The p38 MAPK has been implicated in the growth of some tumors that cause local inflammatory responses, such as pancreatic cancer. Therefore, (11R)-71-85 was tested in a pancreatic tumor model. WT C57BL/6 mice were injected with 7.5×10^5 PANC02 cells. After 16 days, mice received intra-tumor injections of 40 μg or 80 μg (11R)-71-85 or DMSO every other day. Tumor volume from the start of injection (day 16) to day 42 in control mice and mice injected with (11R)-71-85 or DMSO was determined (FIG. 9A). Weight (FIG. 9B) and appearance (FIG. 9C) of the control and treated tumors were assessed on day 38.

Irf4 mRNA = Irf4 mRNA in splenocytes after intraperitoneal injection; type: in vivo, mice; conditions: 40 μg intraperitoneally; splenocytes 4 hours after injection, anti-CD3 plus anti-CD28 24 hours; versus vehicle control
Procedure: FIG. 7 is a graph showing expression of interferon regulatory factor 4 (Irf4) mRNA following in vivo treatment with (11R)-71-85. (11R)-71-85 (40 μg) or vehicle control was injected intraperitoneally into wild type mice. Four hours after injection, splenocytes were collected and stimulated with soluble anti-CD3 plus anti-CD28 for 24 hours. Irf4 mRNA expression was assessed by quantitative real time PCR.
(11R)-71-85 (40 μg) or vehicle control was injected intraperitoneally into wild type mice. Four hours after injection, splenocytes were collected and stimulated with soluble anti-CD3 plus anti-CD28 for 24 hours. Irf4 mRNA expression was assessed by quantitative real time PCR.

Naïve CD4+ T cells = test: Th1 differentiation of naïve CD4+ T cells; type: cell-based; conditions: 2 μM; Th0 or Th1 polarizing conditions 3 days; relative to medium or (11R)-Ctrl
Procedure: FIGS. 5A-5D are a series of flow cytometry plots showing (11R)-71-85 inhibits Th1 differentiation. Naïve CD4^+ T cells were treated with either 2 μM of (11R)-71-85 or (11R)-Ctrl for two hours and after washing, cells were stimulated with anti-CD3 plus anti-CD28 in Th0 (neutral, FIG. 5A and FIG. 5C) or Th1 polarizing conditions (FIG. 5B and FIG. 5D) for 3 days. Cells were treated again with the same concentration of either medium (first column), (11R)-Ctrl (second column), or (11R)-71-85 (third column) for 2 hours and restimulated with PMA plus ionomycin in the presence of Golgi inhibitor for 4 hours. Expression of T bet and interferon (IFN)-γ (indicators of Th1 cells typical of a pro-inflammatory response) was analyzed by flow cytometry.
Additional studies were carried out to evaluate the effect of (11R)-71-85 on T helper (Th) cell differentiation. Expression of IFN-γ and T-bet was used as an indicator of Th1 cells typical of a pro-inflammatory response. Naïve CD4^+ T cells were treated with either medium or 2 μM of (11R)-71-85 or (11R)-Ctrl for two hours and after washing, cells were stimulated with anti-CD3 plus anti-CD28 in Th0 (neutral) or Th1 polarizing conditions for 3 days. […] Expression of T bet and IFNγ was analyzed by flow cytometry (FIGS. 5A-5D).

**Q.** With “(11R)-71-85: fusion protein: 11 arginine residues added to the N-terminus of the Gadd45α 71-85 peptide (LQIHFTLIQAFCCEN; N-terminal 11 arginine; UniProt P24522 71-85, looked up, fragment)” as the substance, how does the “phosphorylation of ATF2” value [1] read?
**A.** decrease in phosphorylation of ATF2

**Q.** What about the tumor volume (PANC02 tumors; 40 μg or 80 μg intra-tumor every other day from day 16 to day 42) of the same substance?
**A.** significantly decreased

**Q.** And the tumor weight (PANC02 tumors; intra-tumor injection every other day, day 38)?
**A.** significantly decreased

**Q.** What about the “Irf4 mRNA expression” value (Irf4 mRNA) of the same substance?
**A.** significantly inhibited

**Q.** And the “expression of IFN-γ” value (Naïve CD4+ T cells)?
**A.** reduced expression; also recorded: blunted

**Q.** And the “expression of T-bet” value (Naïve CD4+ T cells)?
**A.** reduced expression; also recorded: blunted
